pIC50: −log10 of the molar value. Active and inactive are the calls of the source. How the calls were made is not given here.
Test system: T. cruzi-infected H9C2 cardiomyocytes, high-content imaging
Experiment: anti-T. cruzi activity in infected cardiomyocytes – imaging, H9C2 host cardiomyocytes, host toxicity (AID 1159565);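 further: infected cells incubated 72 h after plating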
[1] = measured here: H9C2 host cell toxicity
[2] = measured here: amastigotes per cell

Compound | pIC50 | pIC50 [1] | pIC50 [2] | IC50
Cc1sc(C)c(C(F)(F)F)c1CNCCCNc1cc(=O)c2ccccc2[nH]1 | 6.00 | < 4.30 | 6.30 | 
CCOc1ccc(CN(C)Cc2nc(N)nc(Nc3ccc(C)cc3)n2)cc1 | 5.30 | 5.49 | 5.30 | 
CCOc1ccc(NC(=O)c2ccc(NC(=O)NC3CCCCC3)cc2)cc1 |  | < 4.30 | < 4.30 | > 50 µM (inactive)
COc1cccc2sc(CN(C)C(=O)C3CNCCN3c3ccc(F)cc3)c(C)c12 (stereo not given) | 6.70 | 5.10 | 6.80 | 
CCOc1ccc(Nc2ccc(S(=O)(=O)N3CCN(C)CC3)cc2[N+](=O)[O-])cc1OCC |  | < 4.30 | 5.49 | > 50 µM (inactive)
Cc1nc(-c2nc(NCc3ccc(Cl)cc3)c3cccnc3c2O)n[nH]1 | 6.10 | 4.60 | 5.89 | 
Cc1ccc(NC(=O)c2ccnc(N3CCCC3)c2)cc1-c1cc(C(N)=O)ccc1C | 5.00 | < 4.30 | 5.49 | 
Fc1ccccc1N1C[C@H]2CCN(c3cccnc3)C[C@H]2C1 | 6.70 | < 4.30 | 6.70 | 
COc1cc2c(cc1OC)[C@H]1[C@@H](C)c3ccc(OC)c(OC)c3CN1CC2 |  | < 4.30 | 4.70 | > 50 µM (inactive)
CNc1nc(C)nc(N2CCc3cc(C(=O)NCc4ccc(-c5nccn5C)cc4Cl)ccc32)n1 | 4.89 | 4.30 | 5.30 | 
CC(=O)Nc1ccc(-c2ccnc(Nc3cccc(C#N)c3)n2)cc1 | 5.20 | 4.89 | 5.49 | 
Cc1[nH]nc(C(F)(F)F)c1NC(=O)CCn1cc(Cl)c([N+](=O)[O-])n1 | 4.60 | < 4.30 | 5.20 | 
COc1ncc(-c2ccc3nccc(-c4ccncc4)c3c2)cc1NS(C)(=O)=O | 4.60 | 5.30 | 4.89 | 
Cc1ccc(CNC2CCN(C[C@@H]3Cn4c(=O)ccc5ccc(=O)n3c54)CC2)cc1F | 5.89 | < 4.30 | 6.00 | 
CC(=O)Nc1ccc(-c2cnc(N)c(-c3nc4ccc(F)cc4[nH]3)c2)cc1 |  | 6.10 | < 4.30 | > 50 µM (inactive)
O=C(NC1C(=O)N(c2ccccc2)C1c1cccnc1)c1ccc(Cl)s1 (stereo not given) | 7.30 | < 4.30 | 7.40 | 
O=C(Cn1cnc2cc([N+](=O)[O-])ccc2c1=O)NCCc1ccc(Cl)cc1Cl | 6.40 | < 4.30 | 6.70 | 
O=C(NCc1ccncc1)c1ccccc1N1CCCN(C(=O)Cc2ccc(F)c(F)c2)CC1 | 7.10 | < 4.30 | 7.10 | 

Compound | pIC50 | pIC50 [1] | pIC50 [2] | IC50
O=C(Nc1nc2ccccc2[nH]1)c1c(O)c2cccc3c2n(c1=O)CC3 | 4.80 | 5.00 | 4.60 | 
Cc1nnnn1-c1cccc(C(=O)N2CCC[C@@]3(C)c4ncncc4CCC23)c1 (stereo not given in full) | 6.49 | < 4.30 | 6.49 | 
O=C(CN1CCN(c2ccccn2)CC1)Nc1cc(S(=O)(=O)N2CCCCCC2)ccc1Cl | 5.10 | < 4.30 | 5.20 | 
NS(=O)(=O)c1ccc(Nc2nccc(-c3cnn4ncccc34)n2)cc1 | 4.80 | 6.49 | 6.10 | 
COc1ccc(-c2cc(C)no2)cc1S(=O)(=O)Nc1ccc(F)c(Cl)c1 | 5.49 | 4.30 | 5.40 | 
O=C(NCCc1cccnc1)c1ccc(-c2ccccc2F)o1 | 6.70 | < 4.30 | 6.70 | 
O=C(Cc1ccccc1)Nc1ccccc1C(=O)Nc1nccs1 |  | < 4.30 | < 4.30 | > 50 µM (inactive)
O=c1ccc2ccc(F)c3c2n1C[C@H]3CN1CCN(CC(O)c2cc3c(cn2)OCS3)CC1 (stereo not given in full) | 6.20 | < 4.30 | 6.49 | 
CN(C)Cc1cccc(Nc2nccc(-c3ccc(NCCN)c(C#N)c3)n2)c1 | 5.00 | 5.70 | 5.80 | 
Cc1nccn1C1CCCN(C(=O)c2cc3c(F)cccc3s2)C1 (stereo not given) | 6.00 | < 4.30 | 6.10 | 
COc1cccc(S(=O)(=O)Nc2ccc3c(c2)CC(N2CCC(NC(=O)C4CC4)CC2)C3)c1 (stereo not given) |  | < 4.30 | 4.49 | > 50 µM (inactive)
COc1cccc(CN(C)Cc2nc(N)c3c(C)c(C)sc3n2)c1 | 4.80 | < 4.30 | 4.80 | 
O=c1oc2ccccc2n1C1CCN(Cc2ccccc2-c2cccnc2)CC1 | 6.49 | < 4.30 | 6.40 | 
Nc1cc(-c2ccc3ncnc(N4CCOCC4)c3c2)cnc1N | 5.30 | 5.49 | 5.80 | 
N#Cc1nc(C=Cc2ccccc2)oc1NCc1cccnc1 | 6.40 | 4.80 | 6.40 | 
COc1ccc(OC)c(NC(=O)c2ccc([N+](=O)[O-])o2)c1 | 4.89 | 5.40 | 5.10 | 
NC(N)=Nc1nc(-c2ccc(NC(N)=NCCN3CCCC3)cc2)cs1 |  | < 4.30 | < 4.30 | > 50 µM (inactive)
